Source: ChEMBL document CHEMBL1166004, “Microbial transformations of the taxan ring of 10-DAB by some strains of the fungus Curvularia lunata: formation of the bis-abeotaxanes wallifoliol and 4-deacylwallifoliol” (J Nat Prod, 2010)

System: NCI-H460
Assay: Cytotoxicity against human H460 cells
Format: functional, cell-based

## CC1=C2[C@]3(O)C(=O)OC(C)(C)[C@]2(C[C@@H]1O)[C@@H](OC(=O)c1ccccc1)[C@@H]1[C@]2(O)CO[C@@H]2C[C@H](O)[C@]13C
  IC50: 103 µM

## CC(=O)O[C@@]12CO[C@@H]1C[C@H](O)[C@]1(C)[C@@H]2[C@H](OC(=O)c2ccccc2)[C@]23C[C@H](O)C(C)=C2[C@@]1(O)C(=O)OC3(C)C [WALLIFOLIOL]
  IC50: 68 µM
